# Measurements from PMC7913291, “Synthesis and Anti-Hepatocarcinoma Effect of Amino Acid Derivatives of Pyxinol and Ocotillol” (Molecules, 2021).
# Where two headings read alike, the source gives them in different places.
# Legend:
# VEGF = experiment: Serum VEGF level in H22 tumor-bearing mice; assay type: in vivo, Kunming mice; settings: mean ± SD
# Description: (§1) Cyclophosphamide (CTX), used as the positive drug, was purchased from Sigma (St. Lousis, MO, USA. Detecting kits for IL-2, TNF-α, VEGF, AST, ALT, CRE and BUN were purchased from Nanjing Jiancheng Biotechnology Co. (Nanjing, China).
# (§2) 24 h after the last administration, the whole blood was collected from the orbit. Serum was obtained from whole blood by centrifugation (3500 rpm, 15 min, 4 °C) and stored at −20 °C. The levels of IL-2, TNF-α, VEGF, AST, ALT, BUN and CRE in serum were determined in accordance with the procedures described in commercial kit instructions.
# TNF-α = experiment: Serum TNF-α level in H22 tumor-bearing mice; assay type: in vivo, Kunming mice; settings: mean ± SD
# Description: as §1, §2
# HepG2 cells = experiment: Cytotoxic activity on HepG2 cells (CCK-8 assay); assay type: cell-based; settings: Homo sapiens, read-out: IC50 over HepG2 cells
# Description: Human hepatocellular liver carcinoma cell line (HepG2) were obtained from Institute of Biochemistry and Cell Biology, Academy of Science (Shanghai, China) and were authenticated using the STR profiling method. HepG2 cells were cultured in MDEM (Gibco, Waltham, MA, USA) supplemented with 10% fetal bovine serum (FBS) and 1% penicillin-streptomycin bubbled with 5% CO2-enriched air at a temperature of 37 °C (Thermo Scientific, Waltham, MA, USA). The cytotoxic effect of compounds on HepG2 cells was assessed by using CCK-8 method. Briefly, HepG2 cells were cultured in 96-well plates at a density of 5 × 10^3 cells per well for 24 h. […] Three replicates were performed. The relative cell viability was expressed as percentage relative to the untreated cells. The inhibition ratio was calculated. The IC50 values were calculated using Logistic regression from three independent tests.
# IL-2 = experiment: Serum IL-2 level in H22 tumor-bearing mice; assay type: in vivo, Kunming mice; settings: mean ± SD
# Description: as §1, §2
# [1] = Hepatic and renal function (serum ALT, AST, CRE, BUN) in H22 tumor-bearing mice
# Description: as §1, §2
# H22 transplanted tumor = experiment: Antitumor activity in H22 tumor-bearing mice (tumor weight, volume, inhibition rate, tumor histology); assay type: in vivo, Kunming mice
# Description: Hepatocellular carcinoma cell line (H22) was purchased from the Cell Bank of Type Culture Collection Committee of Chinese Academy of Sciences (Shanghai, China), and cultured in Dulbecco's modified eagle medium supplemented with 10% fetal calf serum and then cultured at 37 °C in 5% CO2. […] (Changchun, China). All the mice, given food and water ad libitum, were raised in temperature and humidity controlled (23 ± 2 °C, 50 ± 10% humidity) environment under a 12 h light/dark cycle. The mice were acclimatized for at least 1 week before use. The animal experiments were performed in accordance with the guidelines for the Care and Use of Laboratory Animals and approved by the ethics committee of School of Pharmaceutical Sciences, Jilin University, China. H22 cells, resuspended in normal saline with final concentration of 5 × 10^6 cells/mL, were injected into the abdominal cavity of mice under aseptic conditions. After 1 week, ascites tumor cells were extracted and dispersed with physiological saline to a concentration of 1 × 10^7 cells/mL.
# [2] = Body weight and organ indexes in H22 tumor-bearing mice
# Description: Before administration every day, the tumor size and body weight were measured. When the tumor was larger than 20 mm in diameter, animals were euthanized according to the IACUC proposals.
# (§3) Mice were then killed by cervical dislocation after blood collected. The tumor, liver and kidney were rapidly separated, weighted and dissected for histopathological examination.
# The liver and kidney indexes were calculated as follows: organ index (mg/g) =average weight of organ/average body weight.
# [3] = Histopathological examination of liver and kidney (H&E staining); settings: H22 tumor-bearing mice; CTX 20 mg/kg
# Description: as §3
# The tissue of tumor, liver and kidney from each mouse was quickly fixed in 10% neutral-buffered formalin for histopathology. The H&E staining of H22 solid tumor, liver and kidney tissue were embedded in paraffin and sectioned into sections with a thickness of 5 µm which were conducted following the manufacturer’s instructions in respective kit. Tumor, liver and kidney tissue sections were observed by light microscopy (Leica DM750, Solms, Germany) and recorded by photography (×400).
# [4] = cited from earlier work
# [5] = rat, in vivo; cited from earlier work
# [6] = HepG2, CCK-8, 48 h, mean of three experiments ±SD
# [7] = 25 mg/kg intragastrically once a day for 14 days
# [8] = 50 mg/kg intragastrically once a day for 14 days
# [9] = 20 mg/kg intragastrically once a day for 14 days
# [10] = serum, H22 tumor-bearing mice, 20 mg/kg
smiles,measurement,setting,value
"CC(C)(O)[C@H]1CC[C@@](C)(C2CC[C@]3(C)C2[C@H](O)CC2[C@@]4(C)CC[C@H](OC(=O)C5CCCN5)C(C)(C)C4CC[C@]23C)O1 (stereo partly drawn) [2e, (20S, 24R)-Epoxy-3β-O-(L-prolyl)-dammarane-12β, 25-diol]",VEGF level,"VEGF; n = 6, 25 mg/kg","158.32 ± 15.97 ^##, * pg/mL"
same,VEGF level,"VEGF; n = 6, 50 mg/kg","127.62 ± 17.46 ^##, ** pg/mL"
same,VEGF level,"VEGF; n = 6, 100 mg/kg",114.67 ± 15.42 pg/mL
same,TNF-α level,"TNF-α; n = 6, 25 mg/kg",287.01 ± 39.10 pg/mL
same,TNF-α level,"TNF-α; n = 6, 50 mg/kg",321.97 ± 55.57 pg/mL
same,TNF-α level,"TNF-α; n = 6, 100 mg/kg",358.35 ± 45.19 pg/mL
same,IC50,HepG2 cells; [6],11.3 ± 0.43 µM
same,IL-2 level,"IL-2; n = 6, 25 mg/kg",111.13 ± 13.28 pg/mL
same,IL-2 level,"IL-2; n = 6, 50 mg/kg",136.86 ± 22.66 pg/mL
same,IL-2 level,"IL-2; n = 6, 100 mg/kg",174.11 ± 28.90 pg/mL
same,ALT,"[1]; mouse, in vivo, 25 mg/kg","43.62 ± 5.15 ^##, ** IU/L"
same,AST,"[1]; mouse, in vivo, 25 mg/kg","42.51 ± 5.22 ^##, ** IU/L"
same,CRE,"[1]; mouse, in vivo, 25 mg/kg",31.17 ± 9.03 µmol/L
same,ALT,"[1]; mouse, in vivo, 50 mg/kg","42.31 ± 5.00 ^##, ** IU/L"
same,AST,"[1]; mouse, in vivo, 50 mg/kg","38.69 ± 6.43 ^##, ** IU/L"
same,BUN,"[1]; mouse, in vivo, 50 mg/kg",11.06 ± 2.16 mmol/L
same,CRE,"[1]; mouse, in vivo, 50 mg/kg",28.95 ± 9.16 µmol/L
same,ALT,"[1]; mouse, in vivo, 100 mg/kg","35.37 ± 3.32 ^##, ** IU/L"
same,AST,"[1]; mouse, in vivo, 100 mg/kg","31.47 ± 4.48 ^#, ** IU/L"
same,BUN,"[1]; mouse, in vivo, 100 mg/kg",10.32 ± 2.77 mmol/L
same,CRE,"[1]; mouse, in vivo, 100 mg/kg",26.93 ± 10.60 µmol/L
same,"Inhibitory Rate (tumor inhibition rate, TIR)",H22 transplanted tumor; [7],16.20%
same,Tumor Weight,H22 transplanted tumor; [7],1.35 ± 0.26 g
same,"Inhibitory Rate (tumor inhibition rate, TIR)",H22 transplanted tumor; [8],24.76%
same,Tumor Weight,H22 transplanted tumor; [8],1.21 ± 0.34 g
same,Tumor Weight,H22 transplanted tumor; 100 mg/kg intragastrically once a day for 14 days,1.04 ± 0.23 g
same,"Inhibitory Rate (tumor inhibition rate, TIR)","H22 transplanted tumor; 100 mg/kg intragastrically once a day for 14 days, listed as Compound 2e, 100 mg/kg",35.32%
same,"Inhibitory Rate (tumor inhibition rate, TIR)","H22 transplanted tumor; 100 mg/kg intragastrically once a day for 14 days, listed as compound 2e, 100 mg/kg",35.32%
same,Effect on tumor volume compared to the model group,"H22 transplanted tumor; 50, 100 mg/kg, p < 0.05, p < 0.01",significantly reduce
"O=P1(N(CCCl)CCCl)NCCCO1 (stereo not drawn) [Cyclophosphamide, reference compound]",Body weight D14,[2]; [9],32.76 ± 3.14 g
same,Increase of Body Weight,[2]; [9],11.56 ± 3.23 g
same,Kidney Index,[2]; [9],13.27 ± 1.96 mg/g
same,Liver Index,[2]; [9],51.54 ± 7.69 mg/g
same,Body weight D1,"[2]; D1, 20 mg/kg group",21.20 ± 1.71 g
same,VEGF level,"VEGF; n = 6, 20 mg/kg",103.43 ± 14.00 pg/mL
same,TNF-α level,"TNF-α; n = 6, 20 mg/kg","207.47 ± 23.37 ^##, ** pg/mL"
same,IC50,"HepG2 cells; HepG2, 48 h",9.18 ± 0.34 µM
same,IL-2 level,"IL-2; n = 6, 20 mg/kg",110.52 ± 17.54 pg/mL
same,ALT,[1]; [10],"50.61 ± 3.22 ^##, ** IU/L"
same,AST,[1]; [10],"53.47 ± 5.04 ^##, ** IU/L"
same,BUN,[1]; [10],"14.23 ± 2.38 ^##, * mmol/L"
same,CRE,[1]; [10],32.86 ± 7.74 µmol/L
same,"Inhibitory Rate (tumor inhibition rate, TIR)",H22 transplanted tumor; [9],49.69%
same,Tumor Weight,H22 transplanted tumor; [9],0.81 ± 0.18 g
same,Effect on tumor volume compared to the model group,"H22 transplanted tumor; CTX 20 mg/kg, p < 0.01",significantly reduce
same,Liver and kidney cell morphology (H&E),[3],many vacuoles and edema
CC(C)(O)C1CCC(C)(C2CCC3(C)C2C(O)CC2C4(C)CCC(O)C(C)(C)C4C(O)CC23C)O1 (stereo not drawn) [Ocotillol],plasma protein binding rates,[4],high
same,absorption into blood,[5],poor
same,systemic exposure,[5],low
same,t1/2,[5],long
same,IC50,HepG2 cells; [6],92.7 ± 3.07 µM
